Laboratory results as given in ChEMBL document CHEMBL5463729, “Data for DCP probe BAY 1753011” (2023).

Tests used:
[1] = target: Serine/threonine-protein kinase ICK (Homo sapiens) (UniProt Q9UPZ9); assay: Inhibition of ICK(h) at 10.0 µM in the Eurofins Kinase panel; conditions: Compound concentration 10.0 uM
[2] = target: Serine/threonine-protein kinase D3 (Homo sapiens) (UniProt O94806); assay: Inhibition of PKD3(h) at 10.0 µM in the Eurofins Kinase panel; conditions: Compound concentration 10.0 uM
Chain of Serine/threonine-protein kinase D3 (Homo sapiens) (O94806 whole entry): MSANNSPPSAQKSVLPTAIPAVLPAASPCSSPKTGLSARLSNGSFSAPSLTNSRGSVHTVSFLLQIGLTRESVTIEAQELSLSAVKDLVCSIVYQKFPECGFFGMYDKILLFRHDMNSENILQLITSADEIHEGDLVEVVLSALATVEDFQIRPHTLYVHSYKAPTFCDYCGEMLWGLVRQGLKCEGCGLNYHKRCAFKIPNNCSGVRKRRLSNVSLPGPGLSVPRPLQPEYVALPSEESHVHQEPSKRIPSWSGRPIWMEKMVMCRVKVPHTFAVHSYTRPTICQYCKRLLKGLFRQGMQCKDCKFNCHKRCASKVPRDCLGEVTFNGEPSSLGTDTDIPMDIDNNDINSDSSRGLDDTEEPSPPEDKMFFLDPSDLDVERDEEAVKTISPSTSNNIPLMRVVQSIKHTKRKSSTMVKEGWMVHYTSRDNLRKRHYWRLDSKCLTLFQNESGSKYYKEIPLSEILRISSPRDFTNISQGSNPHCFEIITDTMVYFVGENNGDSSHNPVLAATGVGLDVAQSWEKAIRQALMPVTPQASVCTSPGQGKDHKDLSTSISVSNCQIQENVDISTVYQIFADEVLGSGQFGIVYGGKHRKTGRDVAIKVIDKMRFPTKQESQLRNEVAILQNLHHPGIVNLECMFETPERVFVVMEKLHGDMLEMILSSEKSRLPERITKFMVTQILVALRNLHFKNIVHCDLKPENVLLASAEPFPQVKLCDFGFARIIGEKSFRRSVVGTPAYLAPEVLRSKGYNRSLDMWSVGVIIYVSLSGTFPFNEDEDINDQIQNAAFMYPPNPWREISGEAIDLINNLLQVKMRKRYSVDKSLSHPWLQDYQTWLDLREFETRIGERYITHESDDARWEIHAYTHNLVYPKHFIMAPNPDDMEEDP

[3] = target: Tyrosine-protein kinase Fgr (Homo sapiens) (UniProt P09769); assay: Inhibition of Fgr(h) at 10.0 µM in the Eurofins Kinase panel; conditions: Compound concentration 10.0 uM
[4] = target: Hepatocyte growth factor receptor (Homo sapiens) (UniProt P08581); assay: Inhibition of Met(h) at 10.0 µM in the Eurofins Kinase panel; conditions: Compound concentration 10.0 uM
Chain of Hepatocyte growth factor receptor (Homo sapiens) (P08581 whole entry): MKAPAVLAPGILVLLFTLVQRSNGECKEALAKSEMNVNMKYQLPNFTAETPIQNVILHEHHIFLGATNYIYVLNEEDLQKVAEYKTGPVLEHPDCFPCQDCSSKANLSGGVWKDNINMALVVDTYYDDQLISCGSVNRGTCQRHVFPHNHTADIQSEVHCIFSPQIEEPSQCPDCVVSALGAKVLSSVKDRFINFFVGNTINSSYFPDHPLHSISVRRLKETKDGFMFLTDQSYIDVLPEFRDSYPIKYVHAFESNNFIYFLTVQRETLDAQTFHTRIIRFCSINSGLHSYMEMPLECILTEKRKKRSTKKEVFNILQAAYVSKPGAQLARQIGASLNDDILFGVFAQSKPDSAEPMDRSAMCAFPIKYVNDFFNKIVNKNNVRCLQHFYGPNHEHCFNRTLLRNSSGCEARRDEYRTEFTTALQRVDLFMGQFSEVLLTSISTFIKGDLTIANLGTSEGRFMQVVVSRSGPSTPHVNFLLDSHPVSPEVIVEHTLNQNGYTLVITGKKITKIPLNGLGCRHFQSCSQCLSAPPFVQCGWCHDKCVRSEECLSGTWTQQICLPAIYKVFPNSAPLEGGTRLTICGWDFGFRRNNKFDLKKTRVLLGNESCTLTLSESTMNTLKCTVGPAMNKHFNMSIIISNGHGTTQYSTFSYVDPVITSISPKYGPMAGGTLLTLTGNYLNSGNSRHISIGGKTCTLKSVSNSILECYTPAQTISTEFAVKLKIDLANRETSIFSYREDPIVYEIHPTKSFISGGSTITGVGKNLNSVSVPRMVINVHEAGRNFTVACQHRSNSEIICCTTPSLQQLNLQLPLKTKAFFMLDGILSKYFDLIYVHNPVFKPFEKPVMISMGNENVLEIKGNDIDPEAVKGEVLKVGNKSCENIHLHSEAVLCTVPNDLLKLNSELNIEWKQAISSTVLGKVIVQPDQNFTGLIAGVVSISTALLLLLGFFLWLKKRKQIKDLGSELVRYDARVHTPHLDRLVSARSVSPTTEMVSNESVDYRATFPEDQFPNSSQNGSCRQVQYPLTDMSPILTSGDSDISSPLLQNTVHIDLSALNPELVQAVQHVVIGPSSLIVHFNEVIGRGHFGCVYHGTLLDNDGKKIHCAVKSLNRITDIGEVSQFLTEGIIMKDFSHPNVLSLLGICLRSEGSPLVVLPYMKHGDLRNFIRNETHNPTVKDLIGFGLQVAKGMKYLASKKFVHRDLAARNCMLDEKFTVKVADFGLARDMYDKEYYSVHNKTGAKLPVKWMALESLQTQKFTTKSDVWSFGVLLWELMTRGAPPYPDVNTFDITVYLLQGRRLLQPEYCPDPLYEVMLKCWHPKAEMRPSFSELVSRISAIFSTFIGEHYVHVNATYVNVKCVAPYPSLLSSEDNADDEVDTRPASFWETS

[5] = target: Tyrosine-protein kinase Lck (Homo sapiens) (UniProt P06239); assay: Inhibition of Lck(h) at 10.0 µM in the Eurofins Kinase panel; conditions: Compound concentration 10.0 uM
Chain of Tyrosine-protein kinase Lck (Homo sapiens) (P06239 2-509 limits assumed): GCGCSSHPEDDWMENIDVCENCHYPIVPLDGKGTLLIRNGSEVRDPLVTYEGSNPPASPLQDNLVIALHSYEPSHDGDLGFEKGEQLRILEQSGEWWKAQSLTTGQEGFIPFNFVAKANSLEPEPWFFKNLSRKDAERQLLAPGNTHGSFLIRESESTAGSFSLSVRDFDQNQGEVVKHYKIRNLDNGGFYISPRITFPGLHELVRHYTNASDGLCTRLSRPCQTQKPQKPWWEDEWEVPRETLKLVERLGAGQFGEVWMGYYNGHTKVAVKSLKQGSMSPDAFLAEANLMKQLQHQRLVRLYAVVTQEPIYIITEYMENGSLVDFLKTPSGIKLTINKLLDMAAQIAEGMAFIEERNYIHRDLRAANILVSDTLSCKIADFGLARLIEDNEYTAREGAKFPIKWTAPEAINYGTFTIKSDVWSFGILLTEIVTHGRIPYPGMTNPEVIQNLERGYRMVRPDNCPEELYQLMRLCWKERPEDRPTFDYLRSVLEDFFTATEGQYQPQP

[6] = target: Cyclin-dependent kinase-like 2 (Homo sapiens) (UniProt Q92772); assay: Inhibition of CDKL2(h) at 10.0 µM in the Eurofins Kinase panel; conditions: Compound concentration 10.0 uM
[7] = target: Calcium/calmodulin-dependent protein kinase type 1B (Homo sapiens) (UniProt Q6P2M8); assay: Inhibition of CaMKIbeta(h) at 10.0 µM in the Eurofins Kinase panel; conditions: Compound concentration 10.0 uM
[8] = target: 5-hydroxytryptamine receptor 2A (Homo sapiens) (UniProt P28223); conditions: Compound concentration 10.0 uM
[9] = target: Purinergic P2Y (Rattus norvegicus) (UniProt O35811+Q9EPX4+P49651+Q63371+P41232+O35881+Q6GUG4); assay: Inhibition of Purinergic P2Y at compound concentration of 10.0 uM in the Eurofins-Panlabs radioligand binding assay (Eurofins_assay_268820); assay type: protein assay; set-up: ligand concentration 0.1 nM; conditions: Compound concentration 10.0 uM
Oryctolagus cuniculus [10] = species: Oryctolagus cuniculus; conditions: Compound concentration 10.0 uM
[11] = target: T1, D(4) dopamine receptor (Homo sapiens) (UniProt P21917); conditions: Compound concentration 10.0 uM
T1 sequence (whole entry): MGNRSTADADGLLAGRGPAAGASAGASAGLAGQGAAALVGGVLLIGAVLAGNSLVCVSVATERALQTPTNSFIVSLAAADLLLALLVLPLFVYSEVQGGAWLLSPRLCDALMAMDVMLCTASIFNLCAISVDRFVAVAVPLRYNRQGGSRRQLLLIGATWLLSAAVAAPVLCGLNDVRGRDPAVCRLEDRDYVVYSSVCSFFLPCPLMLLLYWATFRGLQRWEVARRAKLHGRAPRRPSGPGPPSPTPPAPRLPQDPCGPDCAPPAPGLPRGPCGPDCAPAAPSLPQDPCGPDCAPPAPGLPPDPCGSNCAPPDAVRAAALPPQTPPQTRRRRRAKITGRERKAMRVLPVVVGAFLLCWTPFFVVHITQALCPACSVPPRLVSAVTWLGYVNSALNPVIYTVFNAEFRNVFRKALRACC

[12] = target: GABA-A receptor; anion channel (Rattus norvegicus) (UniProt O09028+P15431+P18506+P18508+P19969+P20236+P23574+P23576+P28471+P28473+P30191+P62813+P63079+P63138+Q91ZM7+Q9ES14); conditions: Compound concentration 10.0 uM
[13] = target: Citron Rho-interacting kinase (Homo sapiens) (UniProt O14578); assay: Inhibition of CRIK(h) at 10.0 µM in the Eurofins Kinase panel; conditions: Compound concentration 10.0 uM
[14] = target: GABA-A receptor; anion channel; assay: GPCRScan assay: inhibition of GABAA/BZP; assay type: protein-complex assay, Rattus norvegicus; set-up: radioligand conc. used [nm] 0.6 – 4.0, parental cells brain tissue
[15] = target: Rho-associated protein kinase 2 (Homo sapiens) (UniProt O75116); assay: Inhibition of ROCK-II(h) at 10.0 µM in the Eurofins Kinase panel; conditions: Compound concentration 10.0 uM
Rattus norvegicus = species: Rattus norvegicus; assay: Inhibition of Imidazoline I2, Central at 10 µM in the Eurofins-Panlabs radioligand binding assay (Eurofins_assay_241000); set-up: ligand concentration 2 nM; conditions: Compound concentration 10.0 uM
[16] = target: Mitogen-activated protein kinase 1 (Homo sapiens) (UniProt P28482); assay: Inhibition of Protein Serine/Threonine Kinase, MAPK1 (ERK2) at 10 µM in the Eurofins-Panlabs enzyme assay (Eurofins_assay_171120); set-up: substrate with concentration; conditions: Compound concentration 10.0 uM
[17] = target: Adenosine Transporter (Cavia porcellus) (UniProt H0V4R7+H0UUG1+H0V3Z5); assay: Inhibition of Transporter, Adenosine at compound concentration of 10.0 uM in the Eurofins-Panlabs radioligand binding assay (Eurofins_assay_202000); assay type: protein assay; set-up: ligand concentration 0.5 nM, non-specific ligand with concentration 5 uM Nitrobenzylthioinosine, incubation time 30 min, incubation temperature 25 C; conditions: Compound concentration 10.0 uM
[18] = target: 3-hydroxy-3-methylglutaryl-coenzyme A reductase (Homo sapiens) (UniProt P04035); assay: Inhibition of HMG-CoA Reductase at compound concentration of 10.0 uM in the Eurofins-Panlabs enzyme assay (Eurofins_assay_124010); set-up: substrate with concentration; conditions: Compound concentration 10.0 uM
[19] = target: Sodium-dependent noradrenaline transporter (Homo sapiens, UniProt P23975); assay: GPCRScan assay: inhibition of NET; set-up: radioligand conc. used [nm] 1.3 – 5.0, parental cells stable HEK
Chain of Sodium-dependent noradrenaline transporter (P23975 whole entry): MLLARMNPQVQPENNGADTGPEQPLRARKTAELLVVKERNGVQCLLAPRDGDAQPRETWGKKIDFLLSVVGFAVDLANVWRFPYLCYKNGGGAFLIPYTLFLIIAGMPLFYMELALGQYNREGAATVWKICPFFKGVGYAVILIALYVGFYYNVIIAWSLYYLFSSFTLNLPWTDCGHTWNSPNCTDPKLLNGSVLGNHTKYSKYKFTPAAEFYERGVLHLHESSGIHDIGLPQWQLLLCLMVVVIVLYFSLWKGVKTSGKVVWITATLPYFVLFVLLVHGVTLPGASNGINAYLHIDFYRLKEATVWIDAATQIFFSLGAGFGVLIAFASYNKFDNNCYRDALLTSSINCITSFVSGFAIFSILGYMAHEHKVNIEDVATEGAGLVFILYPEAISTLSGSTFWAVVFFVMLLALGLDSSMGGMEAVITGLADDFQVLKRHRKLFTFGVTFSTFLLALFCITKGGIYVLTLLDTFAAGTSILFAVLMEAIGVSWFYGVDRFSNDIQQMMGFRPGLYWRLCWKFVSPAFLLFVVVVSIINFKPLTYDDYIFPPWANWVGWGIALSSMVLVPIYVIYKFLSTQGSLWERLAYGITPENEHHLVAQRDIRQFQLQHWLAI

Vasopressin V1a receptor = Vasopressin V1a receptor (Homo sapiens, UniProt P37288); assay: Inhibition of Vasopressin V1A at compound concentration of 10.0 uM in the Eurofins-Panlabs radioligand binding assay (Eurofins_assay_287530); set-up: ligand concentration 0.03 nM, non-specific ligand with concentration 1 uM (Arg8)-Vasopressin, incubation time 2 h, incubation temperature 25 C
Chain of Vasopressin V1a receptor (P37288 whole entry): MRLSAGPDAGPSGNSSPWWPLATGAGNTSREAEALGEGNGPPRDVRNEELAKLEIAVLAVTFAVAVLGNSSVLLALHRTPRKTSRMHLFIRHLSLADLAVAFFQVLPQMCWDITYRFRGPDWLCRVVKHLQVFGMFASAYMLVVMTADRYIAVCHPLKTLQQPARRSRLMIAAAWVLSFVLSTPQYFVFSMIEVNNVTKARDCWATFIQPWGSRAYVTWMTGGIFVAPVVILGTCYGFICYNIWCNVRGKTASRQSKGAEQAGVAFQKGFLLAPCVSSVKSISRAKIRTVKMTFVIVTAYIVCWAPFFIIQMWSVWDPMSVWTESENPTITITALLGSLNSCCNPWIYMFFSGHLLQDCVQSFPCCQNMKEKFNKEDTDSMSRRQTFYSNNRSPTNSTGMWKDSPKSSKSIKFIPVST

Caspase-1 (Homo sapiens) = Caspase-1 (Homo sapiens) (UniProt P29466); assay: Inhibition of Peptidase, CASP1 (Caspase 1) at 10 µM in the Eurofins-Panlabs enzyme assay (Eurofins_assay_163000); conditions: Compound concentration 10.0 uM
Chain of Caspase-1 (Homo sapiens) (P29466 120-297 limits assumed): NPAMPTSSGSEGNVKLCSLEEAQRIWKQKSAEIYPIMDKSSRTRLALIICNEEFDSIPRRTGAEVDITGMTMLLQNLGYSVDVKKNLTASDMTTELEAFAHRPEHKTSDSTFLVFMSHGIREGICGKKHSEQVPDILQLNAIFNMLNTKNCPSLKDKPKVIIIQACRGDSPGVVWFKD
Chain of Caspase-1 (Homo sapiens) (P29466 317-404 limits assumed): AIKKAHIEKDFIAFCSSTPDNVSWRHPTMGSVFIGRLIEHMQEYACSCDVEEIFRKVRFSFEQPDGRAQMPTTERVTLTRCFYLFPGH

[20] = target: Histamine H3 receptor (Homo sapiens) (UniProt Q9Y5N1); conditions: Compound concentration 10.0 uM
MAO-A = MAO-A (Homo sapiens, UniProt P21397); assay: Inhibition of Monoamine Oxidase MAO-A at compound concentration of 10.0 uM in the Eurofins-Panlabs enzyme assay (Eurofins_assay_140010); set-up: substrate with concentration 50 uM Kynuramine, incubation time 60 min, incubation temperature 37 C; conditions: human recombinant MAO-A expressed in insect Hi5 cells, probe Kynuramine, compound concentration 10 uM
Chain of MAO-A (P21397 whole entry): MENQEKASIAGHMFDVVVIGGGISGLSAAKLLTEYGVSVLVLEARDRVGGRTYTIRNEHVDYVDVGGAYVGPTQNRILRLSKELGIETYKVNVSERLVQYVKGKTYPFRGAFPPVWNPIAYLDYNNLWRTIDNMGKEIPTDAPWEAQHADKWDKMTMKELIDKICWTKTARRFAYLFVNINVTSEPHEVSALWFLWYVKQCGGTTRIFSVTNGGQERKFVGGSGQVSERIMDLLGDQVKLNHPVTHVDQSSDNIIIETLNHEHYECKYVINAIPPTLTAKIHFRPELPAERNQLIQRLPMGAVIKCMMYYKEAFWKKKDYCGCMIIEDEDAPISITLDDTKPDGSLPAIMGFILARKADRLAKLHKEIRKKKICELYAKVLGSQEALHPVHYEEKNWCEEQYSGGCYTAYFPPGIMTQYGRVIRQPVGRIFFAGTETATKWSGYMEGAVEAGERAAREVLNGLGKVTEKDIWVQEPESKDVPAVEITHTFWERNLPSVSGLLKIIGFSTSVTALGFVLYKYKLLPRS

Oryctolagus cuniculus [21] = species: Oryctolagus cuniculus; assay: Inhibition of Purinergic P2X at 10 µM in the Eurofins-Panlabs radioligand binding assay (Eurofins_assay_268700); assay type: protein assay; conditions: Compound concentration 10.0 uM
[22] = target: Kappa-type opioid receptor (Homo sapiens, UniProt P41145); assay: GPCRScan assay: inhibition of KOR; set-up: radioligand conc. used [nm] 0.6 – 1.2, parental cells stable HEK
Chain of Kappa-type opioid receptor (P41145 whole entry): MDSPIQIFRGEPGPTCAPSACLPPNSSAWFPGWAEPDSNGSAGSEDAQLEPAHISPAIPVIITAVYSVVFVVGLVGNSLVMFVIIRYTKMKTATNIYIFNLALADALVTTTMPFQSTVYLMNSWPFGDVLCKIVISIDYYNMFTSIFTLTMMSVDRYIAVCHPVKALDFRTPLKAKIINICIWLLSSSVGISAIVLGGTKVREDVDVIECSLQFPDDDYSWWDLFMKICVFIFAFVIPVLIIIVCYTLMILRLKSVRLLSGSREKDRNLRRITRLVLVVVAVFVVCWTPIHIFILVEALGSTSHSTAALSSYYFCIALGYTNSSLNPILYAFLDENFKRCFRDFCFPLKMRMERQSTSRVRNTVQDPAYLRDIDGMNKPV

[23] = target: C-X-C chemokine receptor type 2 (Homo sapiens) (UniProt P25025); assay: Inhibition of Chemokine CXCR2 (IL-8RB) at 10 µM in the Eurofins-Panlabs radioligand binding assay (Eurofins_assay_244500); conditions: Compound concentration 10.0 uM
[24] = target: Dual specificity protein kinase CLK4 (Homo sapiens) (UniProt Q9HAZ1); assay: Inhibition of CLK4(h) at 10.0 µM in the Eurofins Kinase panel; conditions: Compound concentration 10.0 uM
[25] = target: Prostaglandin G/H synthase 1 (Homo sapiens) (UniProt P23219); assay: Inhibition of Cyclooxygenase COX-1 at compound concentration of 10.0 uM in the Eurofins-Panlabs enzyme assay (Eurofins_assay_116020); conditions: Compound concentration 10.0 uM
[26] = target: Glycogen synthase kinase-3 beta (Homo sapiens) (UniProt P49841); assay: Inhibition of GSK3beta(h) at 10.0 µM in the Eurofins Kinase panel; conditions: Compound concentration 10.0 uM

Compound: O=c1n(Cc2cncn2-c2cccc(Cl)c2)nc(-c2ccc(Cl)cc2)n1C[C@H](O)C(F)(F)F
- inhibition [1]: -9.83%
- inhibition [2]: 1.68%
- inhibition [3]: -7.12%
- inhibition [4]: -3.84%
- inhibition [5]: -7.91%
- inhibition [6]: -7.41%
- inhibition [7]: -8.98%
- inhibition [8]: -2%
- inhibition [9]: 4%
- inhibition (Oryctolagus cuniculus [10]): -5%
- inhibition [11]: -4.7%
- inhibition [12]: -3.13%
- inhibition [13]: -2.08%

Compound: C[C@H](O)c1nc(Cn2nc(-c3ccc(Cl)cc3)n(C[C@H](O)C(F)(F)F)c2=O)nn1-c1cccc(Cl)c1 [PECAVAPTAN]
- Ki [14]: 2610 nM
- pKi [14]: 5.58
- inhibition [2]: -0.82%
- inhibition [15]: 18.1%
- inhibition (Rattus norvegicus): 21%
- inhibition [16]: -2%
- inhibition [17]: 21%
- inhibition [18]: 9%
- Ki ([19]; read-out: Ki): 1320 nM
- Ki ([19]; read-out: pKi (converted)): 1320 nM
- IC50 (Vasopressin V1a receptor): 6.74 nM
- Ki (Vasopressin V1a receptor): 1.33 nM
- inhibition (Caspase-1 (Homo sapiens)): 0%
- inhibition [20]: -1%
- inhibition at 60 min, 10 µM (MAO-A): -3% (not active)
- inhibition (Oryctolagus cuniculus [21]): 18%
- inhibition [11]: 19.5%
- Ki ([22]; read-out: Ki): 2170 nM
- Ki ([22]; read-out: pKi (converted)): 2140 nM
- inhibition [23]: -6%
- inhibition [24]: 1.42%
- inhibition [25]: -3%
- inhibition [26]: -4.15%
